# Data as given in US20230372393A1, “METHODS FOR ALLOGENEIC HEMATOPOIETIC STEM CELL TRANSPLANTATION” (Orca Biosystems, Inc., priority 2020, published 2023).
# Key:
# Type in all cases: in vivo, human
# [1] = test system: subjects with advanced hematologic malignancies undergoing myeloablative alloHCT; test: Clinical study: chronic GVHD (NIH criteria); conditions: serum tacrolimus trough higher versus lower than 4 ng/ml, FIG. 9B
# Method: (§1) A clinical study was conducted in subjects with advanced hematologic malignancies undergoing myeloablative allogeneic hematopoietic cell transplantation (alloHCT).
# (§2) Personnel who identified subjects for the SOC cohort were blinded as to their clinical outcomes.
# [2] = test system: subjects with advanced hematologic malignancies undergoing myeloablative alloHCT; test: Clinical study: acute GVHD (MAGIC criteria)
# Method: as §1, §2
# Acute GVHD was staged and graded per MAGIC Standardization criteria.
# Acute GVHD: Acute GVHD (aGVHD) is a significant driver of morbidity and mortality associated with alloHCT, reducing the severity and incidence of aGVHD has the potential to greatly benefit graft recipients. Acute GVHD was staged and graded per Mount Sinai Acute GvHD International Consortium (MAGIC) Standardization criteria.
# [3] = test system: subjects with advanced hematologic malignancies undergoing myeloablative alloHCT; test: Clinical study: GVHD and relapse-free survival, cGVHD-free survival; conditions: tacrolimus-only relative to sirolimus-only patients, FIG. 7G
# Source text: GVHD and relapse-free survival is a composite readout that can refer to survival without relapse or Grade ≥3 acute or extensive chronic GVHD.
# [4] = test system: CD3+ cells of donor origin; test: Donor T cell chimerism versus tacrolimus trough level; conditions: lower average trough tacrolimus level through day +30, p=0.0011, FIG. 9H
# Method: Peripheral blood samples from subjects were also analyzed for chimerism as part of the follow-up procedures. The blood samples were processed to select for various cell populations using standard markers for each cell population. Blood was drawn from subjects that received the composition of the disclosure on day +28, day +56, day +100, day +180 and day +365 post-transplant, and the frequency of peripheral blood cells were quantified by flow cytometry (Markers used for analysis are described in Table 16).
# Without wishing to be bound by a theory, it can be hypothesized that an improved chimerism due to higher tacrolimus levels may have led to the improved GVHD and survival outcomes in patients.
# [5] = test system: subjects with advanced hematologic malignancies undergoing myeloablative alloHCT; test: Clinical study: overall survival; conditions: tacrolimus-only relative to sirolimus-only patients, FIG. 7H
# Source text: Overall survival: OS was defined as the time from the date of transplant to the date of death from any cause or, for surviving patients, to the date of last follow-up.
# [6] = test system: subjects with advanced hematologic malignancies undergoing myeloablative alloHCT; test: Clinical study: disease relapse and disease status; conditions: tacrolimus-only relative to sirolimus-only patients
# Method: as §1, §2
structure (smiles),measurement,setting,value
C=CC[C@@H]1/C=C(\C)C[C@H](C)C[C@H](OC)[C@H]2O[C@@](O)(C(=O)C(=O)N3CCCC[C@H]3C(=O)O[C@H](/C(C)=C/[C@@H]3CC[C@@H](O)[C@H](OC)C3)[C@H](C)[C@@H](O)CC1=O)[C@H](C)C[C@@H]2OC [tacrolimus],chronic GVHD rates,[1],improvements
same,GVHD rates,"[2]; average serum tacrolimus trough level higher than 4 ng/ml for the first 30 days post-transplant, FIG. 8A",lower GVHD rates
same,GVHD rates,"[2]; same conditioning regimen (Bu/Cy or TBI/BFT), trough higher versus lower than 4 ng/ml, FIGS. 9C-G",improvement in GVHD rates
same,Acute GVHD rates,"[2]; serum tacrolimus trough higher versus lower than 4 ng/ml, FIG. 9A",significant improvement
same,GVHD rates,"[2]; tacrolimus only versus sirolimus only prophylaxis, FIGS. 7A-C",higher GVHD rates
same,GRFS rates,[3],improved
same,engraftment of donor T cells (T cell chimerism),[4],increased engraftment of donor T cells
same,overall survival rates,[5],improved
same,survival (FIG. 7E),[6],improved
same,relapse rates,[6]; FIG. 7F,improved
